From patent US11679107B2 (Eisai R&D Management Co., Ltd., priority 2018, dated 2023)
Read-outs that look alike come from different tables or passages of the source.

Legend:
[1] = tested on: NCI-H1568 cells (high MCL1); assay: Cell proliferation and viability, CellTiter-Glo, 72 hours; assay type: cell-based; conditions: for GI50: geometric mean; for CTGlo-ATS Mean MinResponse % 72 h NCIH1568.1: −100% cidal, 0% static, 100% maximal growth
Outline: (§1)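 ATP luminescence (CellTiter-Glo) was measured 72 h after treatment with compound at 10 μM–100 pM (11 points, half-log) in 0.1% DMSO. The Panc line was grown in RPMI-1640 plus insulin and 15% FBS, the other in 10% FBS. Data were normalised to time zero and vehicle controls, where −100% is cidal and 0% static.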

[2] = tested on: Panc 05.04 cells (SF3b K700E mutant); assay: as above; assay type: cell-based; conditions: for CTGlo-ATS Mean MinResponse % 72 h PANC0504.1: −100% cidal, 0% static, 100% maximal growth; for GI50: geometric mean
Outline: as §1

[3] = target: T1, SF3b complexes (Homo sapiens, UniProt O75533+Q7RTV0); assay: Scintillation proximity assay (SPA) with [3H]-labelled pladienolide probe; assay type: binding; conditions: SF3B1 (WT); geometric mean; read-out: SPA-ATS GMean IC50 (nM) SF3B1 (WT)
T1 construct: endogenous in cells; host or cells: Nuclear extracts; A HeLa S3 extract preparation is described for the in vitro splicing assay
Outline: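 SF3b complexes captured from nuclear extracts on anti-SF3B1 antibody SPA beads; test compounds pre-incubated 30 min before 2.5 nM [3H]-pladienolide probe added, then 30 min incubation. Bound probe read by scintillation; values from non-linear regression of concentration–response curves.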

[4] = tested on: Ad2 variant pre-mRNAs spliced in HeLa S3 nuclear extracts; assay: In vitro splicing assay (IVS), RT-qPCR of spliced product; assay type: biochemical; conditions: geometric mean
Outline: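 Read-out is one-step TaqMan RT-qPCR of spliced Ad2 mRNA with Ftz as reference, normalized to DMSO and fit by non-linear regression. Reactions held HeLa S3 nuclear extract, 2 ng Ad2-derived pre-mRNA and test compound, with 15 min preincubation. Splicing was started with ATP-containing activation buffer and run 90 min at 30 °C.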

[5] = NCI-H1568, read-out: CTGlo-ATS GMean GI50 (nM) 72 h NCIH1568.1, NCIH1568.1 cells, 72 h
[6] = Panc 05.04, read-out: CTGlo-ATS GMean GI50 (nM) 72 h PANC0504.1, PANC0504.1 cells, 72 h
[7] = Ad2.1 pre-mRNA substrate, read-out: qPCR-IVS-ATS GMean IC50 (nM) Ad2.1
[8] = Ad2.2 pre-mRNA substrate, read-out: qPCR-IVS-ATS GMean IC50 (nM) Ad2.2
[9] = NCI-H1568, 72 h, read-out: CTGlo-ATS GMean GI50 (nM) 72 h NCIH1568.1, NCIH1568.1 cells, 72 h
[10] = Panc 05.04, 72 h, read-out: CTGlo-ATS GMean GI50 (nM) 72 h PANC0504.1, PANC0504.1 cells, 72 h

Row | SMILES | GI50 [1, 5] | CTGlo-ATS Mean MinResponse % 72 h NCIH1568.1 ([1]; NCIH1568.1 cells, 72 h) | CTGlo-ATS Mean MinResponse % 72 h PANC0504.1 ([2]; PANC0504.1 cells, 72 h) | GI50 [2, 6] | IC50 [3] | IC50 [4, 7] | IC50 [4, 8] | GI50 [1, 9] | GI50 [2, 10]
1 | C/C(=C\c1cc(N2CCOCC2)ccc1F)[C@H]1OC(=O)C[C@H](O)CC[C@H](C)[C@@H](OC(=O)N2CCN(C)CC2)/C=C/[C@@H]1C [Compound 7] | 15.1 nM | −56.359% | −89.436% | 8.96 nM | 2.88 nM | 1250 nM | 25.1 nM |  | 
2 | CN[C@@H]1CCN(c2cccc(/C=C(\C)[C@H]3OC(=O)C[C@H](O)CC[C@H](C)[C@@H](OC(=O)N4CCN(C)CC4)/C=C/[C@@H]3C)c2)C1 [Compound 9] | 116 nM | −83.308% | −87.085% | 63.9 nM | 14.9 nM | 107 nM | 27 nM |  | 
3 | C/C(=C\c1cc(N2CCOCC2)ccc1F)[C@H]1OC(=O)C[C@H](O)CC[C@H](C)[C@@H](OC(=O)N2CCC(N3CCCCC3)CC2)/C=C/[C@@H]1C [Compound 11] | 84.4 nM | −43.979% | −91.789% | 54.2 nM | 9.49 nM | > 25000 nM | 93.4 nM |  | 
4 | C/C(=C\c1cc(F)cc(N2CCN(CCO)CC2)c1)[C@H]1OC(=O)C[C@H](O)CC[C@H](C)[C@@H](OC(=O)N2CCN(C)CC2)/C=C/[C@@H]1C [Compound 12] | 3.64 nM | −92.161% | −73.954% | 7.55 nM | 4.88 nM | 14.7 nM | 13.5 nM |  | 
5 | C/C(=C\c1cc(F)cc(N2CCN(CCO)CC2)c1)[C@H]1OC(=O)C[C@H](O)CC[C@H](C)[C@@H](OC(=O)N2CCC(N3CCCCC3)CC2)/C=C/[C@@H]1C [Compound 13] | 20.8 nM | −95.312% | −94.040% | 32.7 nM | 7.43 nM | 19.3 nM | 15.9 nM |  | 
6 | C/C(=C\c1cc(F)cc(N2CC[C@@H](F)C2)c1)[C@H]1OC(=O)C[C@H](O)CC[C@H](C)[C@@H](OC(=O)N2CCN(C)CC2)/C=C/[C@@H]1C [Compound 14] |  | −65.049% | −91.489% |  | 2.72 nM | 584 nM | 54.7 nM | 14.1 nM | 19.6 nM
7 | C/C(=C\c1cc(F)cc(N2CCC[C@H]2CO)c1)[C@H]1OC(=O)C[C@H](O)CC[C@H](C)[C@@H](OC(=O)N2CCN(C)CC2)/C=C/[C@@H]1C [Compound 15] |  | −74.931% | −80.816% |  | 6.33 nM | 21.6 nM | 12.3 nM | 7.58 nM | 6.23 nM
8 | C/C(=C\c1cc(F)cc(N2C[C@@H](C)O[C@@H](C)C2)c1)[C@H]1OC(=O)C[C@H](O)CC[C@H](C)[C@@H](OC(=O)N2CCC(N3CCCCC3)CC2)/C=C/[C@@H]1C [Compound 16] | 59.1 nM | −88.977% | −85.810% | 41.5 nM | 57 nM | 100 nM | 39.2 nM |  | 
9 | C/C(=C\c1cc(F)cc(N2CC[C@H](N(C)C)C2)c1)[C@H]1OC(=O)C[C@H](O)CC[C@H](C)[C@@H](OC(=O)N2CCN(C)CC2)/C=C/[C@@H]1C [Compound 17] | 53.4 nM | −87.647% | −72.749% | 57.8 nM | 10.7 nM | 46.8 nM | 34 nM |  | 
10 | C/C(=C\c1cc(C)cc(N2CCOCC2)c1)[C@H]1OC(=O)C[C@H](O)CC[C@H](C)[C@@H](OC(=O)N2CCN(C)CC2)/C=C/[C@@H]1C [Compound 18] | 26.1 nM | −60.339% | −83.683% | 19.9 nM | 16.7 nM | 77.5 nM | 34.3 nM |  | 
11 | C/C(=C\c1cc(Cl)cc(N2CCOCC2)c1)[C@H]1OC(=O)C[C@H](O)CC[C@H](C)[C@@H](OC(=O)N2CCN(C)CC2)/C=C/[C@@H]1C [Compound 20] | 17.6 nM | −68.668% | −78.467% | 14.6 nM | 7.76 nM | 61.3 nM | 40.3 nM |  | 
12 | C/C(=C\c1cc(F)cc(N2CCOCC2)c1)[C@H]1OC(=O)C[C@H](O)CC[C@H](C)[C@@H](OC(=O)N2CCN(CCO)CC2)/C=C/[C@@H]1C [Compound 21] | 31.2 nM | −50.841% | −90.919% | 23.6 nM | 10.3 nM | 1610 nM | 52.3 nM |  | 
13 | C/C(=C\c1cc(F)cc(N2CCOCC2)c1)[C@H]1OC(=O)C[C@H](O)CC[C@H](C)[C@@H](OC(=O)N(C)C2CCN(C)CC2)/C=C/[C@@H]1C [Compound 22] | 12.8 nM | −69.453% | −84.195% | 11.6 nM | 5.76 nM | 876 nM | 38.8 nM |  | 
14 | C/C(=C\c1cc(F)cc(N2CCOCC2)c1)[C@H]1OC(=O)C[C@H](O)CC[C@H](C)[C@@H](OC(=O)N2CCN(C)[C@H](C)C2)/C=C/[C@@H]1C [Compound 23] | 10.8 nM | −64.974% | −90.781% | 10.4 nM | 4.23 nM | 369 nM | 28.3 nM |  | 
15 | C/C(=C\c1cc(F)cc(N2CCOCC2)c1)[C@H]1OC(=O)C[C@H](O)CC[C@H](C)[C@@H](OC(=O)N2CCN(C(C)C)CC2)/C=C/[C@@H]1C [Compound 24] | 10.9 nM | −67.459% | −89.895% | 8.29 nM | 5.19 nM | 192 nM | 30.7 nM |  | 
16 | C/C(=C\c1cc(F)cc(N2CCOCC2)c1)[C@H]1OC(=O)C[C@H](O)CC[C@H](C)[C@@H](OC(=O)N2CCN(C(C)(C)C)CC2)/C=C/[C@@H]1C [Compound 25] | 20.6 nM | −49.158% | −88.378% | 20.5 nM | 4.94 nM | 430 nM | 46.4 nM |  | 
17 | C/C(=C\c1cc(F)cc(N2CCOCC2)c1)[C@H]1OC(=O)C[C@H](O)CC[C@H](C)[C@@H](OC(=O)N2CCN(C3CCC3)CC2)/C=C/[C@@H]1C [Compound 26] |  | −68.566% | −88.278% |  | 11.4 nM | 107 nM | 43.5 nM | 26.5 nM | 19 nM
18 | C/C(=C\c1cc(F)cc(N2CCOCC2)c1)[C@H]1OC(=O)C[C@H](O)CC[C@H](C)[C@@H](OC(=O)N2CCN(C3CCCC3)CC2)/C=C/[C@@H]1C [Compound 27] | 12.3 nM | −71.773% | −84.822% | 11.9 nM | 10.5 nM | 39.9 nM | 42.3 nM |  | 
19 | C/C(=C\c1cc(F)cc(F)c1)[C@H]1OC(=O)C[C@H](O)CC[C@H](C)[C@@H](OC(=O)N2CCN(C)CC2)/C=C/[C@@H]1C [Compound 28] |  | −39.539% | −41.132% |  | 10.1 nM | 8.55 nM | 61.5 nM | 89.6 nM | 42.9 nM
20 | C/C(=C\c1cc(F)cc(N(C)C)c1)[C@H]1OC(=O)C[C@H](O)CC[C@H](C)[C@@H](OC(=O)N2CCN(C)CC2)/C=C/[C@@H]1C [Compound 29] | 53.8 nM | −19.404% | −90.429% | 34.7 nM | 5.6 nM | > 25000 nM | 90.7 nM |  | 
21 | C/C(=C\c1cc(F)cc(N(C)C2CCN(C)CC2)c1)[C@H]1OC(=O)C[C@H](O)CC[C@H](C)[C@@H](OC(=O)N2CCN(C)CC2)/C=C/[C@@H]1C [Compound 31] | 89.4 nM | −98.108% | −90.716% | 53 nM | 43.2 nM | 50.1 nM | 14.6 nM |  | 
